Assay [1] concerns mouse model of stroke induced by middle cerebral artery occlusion (MCAO). Kind of assay: Brain water content (Example 1). The note with it: 10 mg/kg i.v. Bid from 30 min after infarction; 48 h after reperfusion. It counts as in vivo, ICR mice. The protocol:
(§1) The administration of the respective treatments was started 30 minutes after the MCAO procedure of the mice.
(§2) Seventy-two (72) ICR mice received behavioral training after adaptive feeding period and before the operation to establish stroke models. The behavioral training included beam-walking and rotarod test. The experimental mice were then randomly divided into 6 groups according to the values of the body weight, with 12 mice in each test group as described in Table 1.
(§3) The mice were fasted overnight before modeling and were anesthetized with isoflurane. Right middle cerebral artery occlusion (MCAO) was induced in mice using the intraluminal filament technique to mimic focal cerebral ischemic stroke. After 1 hr, reperfusion was allowed by removing the occlusion. During the operation, a white light was used to maintain the mouse rectal temperature between 36.5° C.-37.0° C.
(§4) Administration of each treatment was performed 0.5 h after the infarction. The neurological function score was evaluated at 24 hrs and 48 hrs after reperfusion, as was assessed by beam-walking, grip strength, and rotarod tests. At 48 h after reperfusion, the whole brain tissue of all rats was harvested to assess the cerebral infarct area by TTC staining, as well as to measure brain volume and brain water content, two indicators of acute cerebral edema.

The test system is the same in assay [2]. The assay is described as follows: Cerebral infarct volume by TTC staining (Example 1). It counts as in vivo, ICR mice. The conditions noted are these: 10 mg/kg i.v. Bid from 30 min after infarction, 48 h after reperfusion. Here is the method:
as §1, §2, §3, §4

`CCCCC1OC(=O)c2ccccc21` (stereo not shown) [Butylphthalide]: in assay [1], the Brain water content is 329.50 ± 23.60 mg and the Brain water ratio amounted to 81.84 ± 1.30%. Moreover, the “Cerebral Infarction Volume” value in assay [2] is listed as 27.29 ± 13.07 %. Also, in assay [2] (vs model), the “Improvement rate of infarction” value was determined as 43.02%.

The record behind these values is patent US20250059264A1, “METHOD OF TREATING STROKE” (AlaMab Therapeutics, Inc., priority 2023, published 2025).
